In PMC5218480 (PLoS ONE, 2017):

System: MV-4-11 cells
Assay: Gene expression microarray analysis (Affymetrix PrimeView) and GSEA
Format: cell-based, human
Parameters: RFU PODN (11730768_x_at) / Fold change /veh PODN (11730768_x_at) / RFU LINC00158 (11744669_a_at) / Fold change /veh LINC00158 (11744669_a_at) / RFU DUSP10 (11751237_a_at) / Fold change /veh DUSP10 (11751237_a_at) / RFU ID3 (11757404_x_at) / Fold change /veh ID3 (11757404_x_at) / RFU PLEKHG5 (11737974_s_at) / Fold change /veh PLEKHG5 (11737974_s_at) / RFU LRRC4B (11730491_at) / Fold change /veh LRRC4B (11730491_at) / RFU GIMAP4 (11747438_a_at) / Fold change /veh GIMAP4 (11747438_a_at) / RFU KRT8 (11758183_x_at) / Fold change /veh KRT8 (11758183_x_at) / RFU CNN1 (11734310_a_at) / Fold change /veh CNN1 (11734310_a_at) / RFU VPS37D (11726825_at) / Fold change /veh VPS37D (11726825_at) / RFU C10orf10 (11716522_x_at) / Fold change /veh C10orf10 (11716522_x_at) / RFU KIR2DL2 /// KIR2DL4 /// KIR2DL5A /// KIR2DL5B /// KIR2DS1 /// KIR2DS2 /// KIR2DS3 /// KIR2DS4 /// KIR3DL3 /// KIR3DL3 /// KIR3DS1 (11738374_at) / Fold change /veh KIR2DL2 /// KIR2DL4 /// KIR2DL5A /// KIR2DL5B /// KIR2DS1 /// KIR2DS2 /// KIR2DS3 /// KIR2DS4 /// KIR3DL3 /// KIR3DL3 /// KIR3DS1 (11738374_at) / RFU C1QL1 (11718748_at) / Fold change /veh C1QL1 (11718748_at) / RFU TMPRSS4 (11747572_a_at) / Fold change /veh TMPRSS4 (11747572_a_at) / RFU HAMP (11756126_x_at) / Fold change /veh HAMP (11756126_x_at) / RFU RNFT2 (11725882_a_at) / Fold change /veh RNFT2 (11725882_a_at) / RFU NR4A2 (11747474_a_at) / Fold change /veh NR4A2 (11747474_a_at) / RFU ABCC12 (11746883_a_at) / Fold change /veh ABCC12 (11746883_a_at) / RFU TMEM136 (11760407_x_at) / Fold change /veh TMEM136 (11760407_x_at) / RFU CLDN22 /// WWC2 (11732394_at) / Fold change /veh CLDN22 /// WWC2 (11732394_at) / RFU HLA-DPB1 (11760878_x_at) / Fold change /veh HLA-DPB1 (11760878_x_at) / RFU SPINT1 (11716480_a_at) / Fold change /veh SPINT1 (11716480_a_at) / RFU GAP43 (11754022_s_at) / Fold change /veh GAP43 (11754022_s_at) / RFU A4GNT (11735810_at) / Fold change /veh A4GNT (11735810_at) / RFU PRB3 (11715151_x_at) / Fold change /veh PRB3 (11715151_x_at) / RFU TUBB4B (11761932_at) / Fold change /veh TUBB4B (11761932_at) / RFU CAPN14 (11732068_a_at) / Fold change /veh CAPN14 (11732068_a_at) / RFU TMCC2 (11721928_a_at) / Fold change /veh TMCC2 (11721928_a_at) / RFU IRGQ (11745062_a_at) / Fold change /veh IRGQ (11745062_a_at) / RFU FAM174B (11720279_a_at) / Fold change /veh FAM174B (11720279_a_at) / RFU TMPRSS4 (11748680_a_at) / Fold change /veh TMPRSS4 (11748680_a_at) / RFU FAM212B (11763350_a_at) / Fold change /veh FAM212B (11763350_a_at) / RFU PLEKHG5 (11743358_a_at) / Fold change /veh PLEKHG5 (11743358_a_at) / RFU ZSCAN30 (11745921_a_at) / Fold change /veh ZSCAN30 (11745921_a_at) / RFU CMKLR1 (11741424_a_at) / Fold change /veh CMKLR1 (11741424_a_at) / RFU LOC101060620 /// MAPK8IP1 (11723275_at) / Fold change /veh LOC101060620 /// MAPK8IP1 (11723275_at) / RFU SPTSSB (11747773_x_at) / Fold change /veh SPTSSB (11747773_x_at) / RFU PRSS12 (11739890_at) / Fold change /veh PRSS12 (11739890_at) / RFU BIN1 (11741810_x_at) / Fold change /veh BIN1 (11741810_x_at) / RFU WNT11 (11732464_a_at) / Fold change /veh WNT11 (11732464_a_at) / RFU C10orf10 (11716521_a_at) / Fold change /veh C10orf10 (11716521_a_at) / RFU C5orf56 (11738089_at) / Fold change /veh C5orf56 (11738089_at) / RFU CYB561 (11721691_x_at) / Fold change /veh CYB561 (11721691_x_at) / RFU ANKRD19P (11752326_a_at) / Fold change /veh ANKRD19P (11752326_a_at) / RFU OR2T12 /// OR2T33 /// OR2T8 (11738714_s_at) / Fold change /veh OR2T12 /// OR2T33 /// OR2T8 (11738714_s_at) / RFU VCAN (11748164_a_at) / Fold change /veh VCAN (11748164_a_at) / RFU JSRP1 (11732532_at) / Fold change /veh JSRP1 (11732532_at) / RFU KRTAP10-11 (11738290_x_at) / Fold change /veh KRTAP10-11 (11738290_x_at) / RFU MYO3A (11730013_a_at) / Fold change /veh MYO3A (11730013_a_at) / RFU EBF3 (11725865_a_at) / Fold change /veh EBF3 (11725865_a_at) / RFU CAMK2N1 (11719241_x_at) / Fold change /veh CAMK2N1 (11719241_x_at) / RFU C5orf56 (11738088_a_at) / Fold change /veh C5orf56 (11738088_a_at) / RFU OLFML3 (11715873_a_at) / Fold change /veh OLFML3 (11715873_a_at) / RFU LOC100653217 /// NTM (11731650_a_at) / Fold change /veh LOC100653217 /// NTM (11731650_a_at) / RFU MAPK11 (11762145_a_at) / Fold change /veh MAPK11 (11762145_a_at) / RFU FIZ1 (11724087_x_at) / Fold change /veh FIZ1 (11724087_x_at) / RFU OASL (11726364_x_at) / Fold change /veh OASL (11726364_x_at) / RFU SOX15 (11748057_x_at) / Fold change /veh SOX15 (11748057_x_at) / RFU CD79A (11719716_a_at) / Fold change /veh CD79A (11719716_a_at) / RFU HIST1H1D (11736915_at) / Fold change /veh HIST1H1D (11736915_at) / RFU CASKIN2 (11723855_a_at) / Fold change /veh CASKIN2 (11723855_a_at) / RFU LOC730098 (11760151_x_at) / Fold change /veh LOC730098 (11760151_x_at) / RFU OR4N2 (11742367_at) / Fold change /veh OR4N2 (11742367_at) / RFU PRRT2 (11749266_a_at) / Fold change /veh PRRT2 (11749266_a_at) / RFU SNX32 (11753110_a_at) / Fold change /veh SNX32 (11753110_a_at) / RFU CDHR5 (11726645_a_at) / Fold change /veh CDHR5 (11726645_a_at) / RFU RCAN1 (11760418_a_at) / Fold change /veh RCAN1 (11760418_a_at) / RFU FAM167A (11723789_a_at) / Fold change /veh FAM167A (11723789_a_at) / RFU FAM26E (11764081_at) / Fold change /veh FAM26E (11764081_at) / RFU ISYNA1 (11749810_s_at) / Fold change /veh ISYNA1 (11749810_s_at) / RFU ACY1 (11761880_at) / Fold change /veh ACY1 (11761880_at) / RFU 11764098_at / Fold change /veh 11764098_at / RFU SAMD14 (11745864_x_at) / Fold change /veh SAMD14 (11745864_x_at) / RFU NPB (11741838_a_at) / Fold change /veh NPB (11741838_a_at) / RFU TMPRSS6 (11731388_a_at) / Fold change /veh TMPRSS6 (11731388_a_at) / RFU KRTAP10-2 (11738614_at) / Fold change /veh KRTAP10-2 (11738614_at) / RFU ARHGAP8 /// PRR5-ARHGAP8 (11727945_x_at) / Fold change /veh ARHGAP8 /// PRR5-ARHGAP8 (11727945_x_at) / RFU KRTAP5-7 /// NADSYN1 (11734609_at) / Fold change /veh KRTAP5-7 /// NADSYN1 (11734609_at) / RFU RASL12 (11751679_a_at) / Fold change /veh RASL12 (11751679_a_at) / RFU CDKN2B (11736163_a_at) / Fold change /veh CDKN2B (11736163_a_at) / RFU PRF1 (11729649_at) / Fold change /veh PRF1 (11729649_at) / RFU, ZNF638 /// ZNF638-IT1 / Fold change vs veh, ZNF638 /// ZNF638-IT1 / RFU, PANK3 / Fold change vs veh, PANK3 / RFU, SH3YL1 / Fold change vs veh, SH3YL1 / RFU, ZEB2 / Fold change vs veh, ZEB2 / RFU, NRIP1 / Fold change vs veh, NRIP1 / RFU, PTTG1IP / Fold change vs veh, PTTG1IP / RFU, CAPN2 / Fold change vs veh, CAPN2 / RFU, MED14 / Fold change vs veh, MED14 / RFU, SNORA58 / Fold change vs veh, SNORA58 / RFU, C1orf63 / Fold change vs veh, C1orf63 / RFU, LRRFIP1 / Fold change vs veh, LRRFIP1 / RFU, NDUFAF7 / Fold change vs veh, NDUFAF7 / RFU, SLC12A2 / Fold change vs veh, SLC12A2 / RFU, IBTK / Fold change vs veh, IBTK / RFU, ESF1 / Fold change vs veh, ESF1 / Fold change vs veh, TMEM50B / RFU, TAOK1 / Fold change vs veh, TAOK1 / RFU, ACBD3 / Fold change vs veh, ACBD3 / RFU, TMA16 / Fold change vs veh, TMA16 / RFU, RWDD3 / Fold change vs veh, RWDD3 / RFU, BCAT1 / Fold change vs veh, BCAT1 / RFU, EDEM3 / Fold change vs veh, EDEM3 / RFU, TMEM33 / Fold change vs veh, TMEM33 / RFU, WDR75 / Fold change vs veh, WDR75 / RFU, AHCTF1 / Fold change vs veh, AHCTF1 / RFU, TFRC / Fold change vs veh, TFRC / RFU, ZDHHC17 / Fold change vs veh, ZDHHC17 / RFU, NOM1 / Fold change vs veh, NOM1 / RFU, ARL8B / Fold change vs veh, ARL8B / RFU, ZBTB11 / Fold change vs veh, ZBTB11 / RFU, TAMM41 / Fold change vs veh, TAMM41 / RFU, KIAA1704 /// LOC100996395 / Fold change vs veh, KIAA1704 /// LOC100996395 / RFU, ING1 / Fold change vs veh, ING1 / RFU, TRMT61B / Fold change vs veh, TRMT61B / RFU, FUBP3 / Fold change vs veh, FUBP3 / RFU, TP53 / Fold change vs veh, TP53 / RFU, TNKS2 / Fold change vs veh, TNKS2 / RFU, ZFP14 / Fold change vs veh, ZFP14 / RFU, ACTR2 / Fold change vs veh, ACTR2 / RFU, PPP3R1 / Fold change vs veh, PPP3R1 / RFU, PIK3R1 / Fold change vs veh, PIK3R1 / RFU, HNRNPA1 / Fold change vs veh, HNRNPA1 / RFU, RNF170 / Fold change vs veh, RNF170 / RFU, ZNF28 / Fold change vs veh, ZNF28 / RFU, RNGTT / Fold change vs veh, RNGTT / RFU, OGT / Fold change vs veh, OGT / RFU, BRD1 / Fold change vs veh, BRD1 / RFU, MARS / Fold change vs veh, MARS / RFU, ZNF655 / Fold change vs veh, ZNF655 / RFU, FAHD1 / Fold change vs veh, FAHD1 / RFU, BDP1 / Fold change vs veh, BDP1 / RFU, LRRCC1 / Fold change vs veh, LRRCC1 / RFU, ARID1A / Fold change vs veh, ARID1A / RFU, ZNF146 / Fold change vs veh, ZNF146 / RFU, ZNF330 / Fold change vs veh, ZNF330 / RFU, GPN3 / Fold change vs veh, GPN3 / RFU, C9orf123 / Fold change vs veh, C9orf123 / RFU, N4BP2L2 / Fold change vs veh, N4BP2L2 / RFU, ARFIP1 / Fold change vs veh, ARFIP1 / RFU, FAM179B / Fold change vs veh, FAM179B / RFU, BCL10 / Fold change vs veh, BCL10 / RFU, UHRF1BP1L / Fold change vs veh, UHRF1BP1L / RFU, BET1 / Fold change vs veh, BET1 / RFU, CNOT2 / Fold change vs veh, CNOT2 / RFU, ZNF268 / Fold change vs veh, ZNF268 / Fold change vs veh, ZNF507 / RFU, DGCR2 / Fold change vs veh, DGCR2 / RFU, WDSUB1 / Fold change vs veh, WDSUB1 / Fold change vs veh, HSP90B1 /// MIR3652 / RFU, ADSS / Fold change vs veh, ADSS / RFU, GK / Fold change vs veh, GK / RFU, ZNF148 / Fold change vs veh, ZNF148 / RFU, TAF9 / Fold change vs veh, TAF9 / RFU, SLC1A5 / Fold change vs veh, SLC1A5 / RFU, SLMO2 / Fold change vs veh, SLMO2 / RFU, ABCC4 / Fold change vs veh, ABCC4 / RFU, LOC101060439 /// RAP1B / Fold change vs veh, LOC101060439 /// RAP1B / RFU, RFX7 / Fold change vs veh, RFX7 / RFU, GTPBP10 / Fold change vs veh, GTPBP10 / RFU, CNEP1R1 / Fold change vs veh, CNEP1R1 / RFU, BIVM-ERCC5 /// ERCC5 / Fold change vs veh, BIVM-ERCC5 /// ERCC5 / RFU, ILF3 / Fold change vs veh, ILF3 / RFU 11762660_at / Fold change /veh 11762660_at / RFU VCAN (11757783_s_at) / Fold change /veh VCAN (11757783_s_at) / RFU DDX43 (11728927_at) / Fold change /veh DDX43 (11728927_at) / RFU KRT8 (11758188_x_at) / Fold change /veh KRT8 (11758188_x_at) / RFU NKD1 (11759106_at) / Fold change /veh NKD1 (11759106_at) / RFU SRD5A1 (11742802_a_at) / Fold change /veh SRD5A1 (11742802_a_at) / RFU TPSAB1 /// TPSB2 (11721975_s_at) / Fold change /veh TPSAB1 /// TPSB2 (11721975_s_at) / RFU GSTM3 (11746129_a_at) / Fold change /veh GSTM3 (11746129_a_at) / RFU IL23R (11737362_x_at) / Fold change /veh IL23R (11737362_x_at) / RFU TMEM51 (11727254_a_at) / Fold change /veh TMEM51 (11727254_a_at) / RFU PIWIL2 (11732686_x_at) / Fold change /veh PIWIL2 (11732686_x_at) / RFU ORM1 (11744905_x_at) / Fold change /veh ORM1 (11744905_x_at) / RFU CCDC152 (11743942_at) / Fold change /veh CCDC152 (11743942_at) / RFU ECM1 (11717891_a_at) / Fold change /veh ECM1 (11717891_a_at) / RFU IL23R (11748794_a_at) / Fold change /veh IL23R (11748794_a_at) / RFU TNFAIP8L3 (11732012_x_at) / Fold change /veh TNFAIP8L3 (11732012_x_at) / RFU MBOAT4 (11741988_at) / Fold change /veh MBOAT4 (11741988_at) / RFU 11764193_at / Fold change /veh 11764193_at / RFU TMEM53 (11763286_at) / Fold change /veh TMEM53 (11763286_at) / RFU MAGEB2 (11727129_at) / Fold change /veh MAGEB2 (11727129_at) / RFU TMEM200A (11744735_a_at) / Fold change /veh TMEM200A (11744735_a_at) / RFU CCDC152 (11751479_a_at) / Fold change /veh CCDC152 (11751479_a_at) / RFU FAM211A (11726209_a_at) / Fold change /veh FAM211A (11726209_a_at) / RFU RGS16 (11746705_a_at) / Fold change /veh RGS16 (11746705_a_at) / RFU VCAN (11755009_s_at) / Fold change /veh VCAN (11755009_s_at) / RFU RHOB (11743442_s_at) / Fold change /veh RHOB (11743442_s_at) / RFU RGS16 (11720943_a_at) / Fold change /veh RGS16 (11720943_a_at) / RFU RGS16 (11720944_at) / Fold change /veh RGS16 (11720944_at) / RFU, VPS4B / Fold change vs veh, VPS4B / RFU, CREB1 / Fold change vs veh, CREB1 / RFU, DNAJC13 / Fold change vs veh, DNAJC13 / RFU, GNAQ / Fold change vs veh, GNAQ / RFU, CDK5R1 / Fold change vs veh, CDK5R1 / RFU, ZRANB3 / Fold change vs veh, ZRANB3 / RFU, CUL4A / Fold change vs veh, CUL4A / RFU, CCNY / Fold change vs veh, CCNY / RFU, UFL1 / Fold change vs veh, UFL1 / RFU, COG3 / Fold change vs veh, COG3 / RFU, DIAPH2 / Fold change vs veh, DIAPH2 / RFU, SKA2 / Fold change vs veh, SKA2 / RFU, AFF3 / Fold change vs veh, AFF3 / RFU, LMF1 / Fold change vs veh, LMF1 / RFU, IPO11 / Fold change vs veh, IPO11 / RFU, DFFB / Fold change vs veh, DFFB / RFU, FOXP1 / Fold change vs veh, FOXP1 / RFU, CARD8 / Fold change vs veh, CARD8 / RFU, STRN3 / Fold change vs veh, STRN3 / RFU, ADK / Fold change vs veh, ADK / RFU, RASSF2 / Fold change vs veh, RASSF2 / RFU, WIPF1 / Fold change vs veh, WIPF1 / RFU, LARP1B / Fold change vs veh, LARP1B / RFU, RASA1 / Fold change vs veh, RASA1 / RFU, RB1 / Fold change vs veh, RB1 / RFU, PPFIA1 / Fold change vs veh, PPFIA1 / RFU, MAT2A / Fold change vs veh, MAT2A / RFU, CCT5 / Fold change vs veh, CCT5 / RFU, WDR92 / Fold change vs veh, WDR92 / RFU, CUX1 / Fold change vs veh, CUX1 / RFU, TTC7A / Fold change vs veh, TTC7A / RFU, TMEM135 / Fold change vs veh, TMEM135 / RFU, DEPTOR / Fold change vs veh, DEPTOR / RFU, CPM / Fold change vs veh, CPM / RFU, DNAJB6 / Fold change vs veh, DNAJB6 / RFU, CACNA2D3 / Fold change vs veh, CACNA2D3 / RFU, DTX4 / Fold change vs veh, DTX4 / RFU, TFCP2 / Fold change vs veh, TFCP2 / RFU, GMCL1 /// GMCL1P1 / Fold change vs veh, GMCL1 /// GMCL1P1 / RFU, AEBP2 / Fold change vs veh, AEBP2 / RFU, SNHG1 /// SNORD22 /// SNORD25 /// SNORD26 /// SNORD27 /// SNORD28 /// SNORD29 /// SNORD31 / Fold change vs veh, SNHG1 /// SNORD22 /// SNORD25 /// SNORD26 /// SNORD27 /// SNORD28 /// SNORD29 /// SNORD31 / Fold change (Aza/veh), C12orf56 (ProbeSet 11735607_a_at) / Fold change (ACY-1035/veh), C12orf56 (ProbeSet 11735607_a_at) / Fold change (Aza/veh), FGFR1OP (ProbeSet 11751329_s_at) / Fold change (ACY-1035/veh), FGFR1OP (ProbeSet 11751329_s_at) / Fold change (Aza/veh), VPS36 (ProbeSet 11739960_a_at) / Fold change (ACY-1035/veh), VPS36 (ProbeSet 11739960_a_at) / RFU SYPL1 (11715823_x_at) / Fold change /veh SYPL1 (11715823_x_at) / RFU IGFBP7 (11715501_s_at) / Fold change /veh IGFBP7 (11715501_s_at) / RFU REEP3 (11722064_at) / Fold change /veh REEP3 (11722064_at) / RFU IGLL1 (11728026_x_at) / Fold change /veh IGLL1 (11728026_x_at): dose or concentration left out as unconfirmed
Details: MV-4-11 cells, 48 hours

## Nc1ncn([C@@H]2O[C@H](CO)[C@@H](O)[C@H]2O)c(=O)n1 [azacitidine]
  RFU RCAN1 (11760418_a_at): 18.64 RFU
